Data set [1] can be described thus: Cytotoxic activity against rat skeletal myoblast L6 cells (Alamar Blue). It counts as cell-based. The settings on record: rat, L6 cells (rat skeletal muscle line); cytotoxicity, 6 days incubation + 8 hours Alamar Blue. As to the method: (§1) Cytotoxicity against mammalian cells was assessed using microtitre plates. Briefly, L6 cells (a rat skeletal muscle line) were seeded at 1 × 10^4 mL^–1 in 200 μL of growth medium containing 7 different compound concentrations in a range previously established to encompass both the IC50 and IC90 values. The plates were incubated for 6 days at 37 °C and 20 μL Alamar Blue (Biosource UK Ltd) was then added to each well. After an additional 8 hours incubation, the fluorescence was determined using a FLUOstar Omega fluorescent plate reader (BMG Labtech). Inhibition of growth was calculated by comparison with control values and IC50 and IC90 values were determined in triplicate using linear regression analysis.

The subject of the next data set is L6 cells. The description is as above. The class given is cell-based. The settings on record: ratio of IC50 values obtained with L6 cells and T. brucei. On the procedure: as §1
Data set [2] deals with Bloodstream form T. brucei (strain 427). Put plainly: Trypanocidal activity against bloodstream form T. brucei (Alamar Blue growth inhibition). It counts as cell-based, Trypanosoma brucei. The settings on record: Trypanosoma brucei, 48 hours + overnight Alamar Blue; for IC50: concentration that inhibits growth by 50%; for IC90: concentration that inhibits growth by 90%. As to the method: Bloodstream form T. brucei (strain 427) were cultured at 37 °C in modified Iscove's medium. Trypanocidal activity was assessed by growing parasites in microtiter plates in the presence of various drug concentrations. […] The plates were incubated for 48 hours at 37 °C and 20 μL Alamar Blue was then added to each well. After an additional overnight incubation, the fluorescence was determined. Inhibition of growth was calculated by comparison with control values and IC50 and IC90 values were determined in triplicate using linear regression analysis.

Molecules are shown by their SMILES. Some results are limits rather than exact numbers.

The IC50 is the point on the concentration scale where inhibition reaches its midpoint. What is called IC90 is the concentration at which the effect reaches the 90% level. The melting point is the temperature, or range, at which the solid turns liquid.

`Br.Nc1nc(-c2ccc(C34CC5CC(CC(C5)C3)C4)cc2)cs1` [Compound 3a, 4-[4-(1-Tricyclo[3.3.1.1^3,7]decyl)phenyl]thiazol-2-amine hydrobromide]: the melting point is 345 °C (dec.). Besides, the IC50 in data set [1] is 13800 ± 1600 nM. For the same compound, the “S.I. (selectivity index)” value in the data set with L6 cells is given as less than 1. For the same compound, in data set [2], the IC50 stood at 22500 ± 600 nM and the IC90 worked out at 30500 ± 4500 nM.
In turn, `Br.CN(C)CCc1nc(-c2ccc(C34CC5CC(CC(C5)C3)C4)cc2)cs1` [Compound 3d, 2-{4-[4-(1-Tricyclo[3.3.1.1^3,7]decyl)phenyl]thiazol-2-yl}-N,N-dimethylethan-1-amine dihydrochloride] registered a melting point of 200 to 202 °C. For the same compound, the IC50 in data set [1] stood at 3190 ± 250 nM. Besides, the “S.I. (selectivity index)” value with L6 cells is given as 2.3.
For the compound `NCCc1csc(-c2ccc(F)c(C34CC5CC(CC(C5)C3)C4)c2)n1` [Compound 1a, 2-{2-[3-(1-Tricyclo[3.3.1.1^3,7]decyl)-4-fluorophenyl]thiazol-4-yl}ethan-1-amine], in data set [1], the IC50 turned out to be 1050 ± 230 nM. The “S.I. (selectivity index)” value in the data set with L6 cells is given as 2.5. Also, in data set [2], the IC50 is 420 ± 10 nM and the IC90 amounted to 560 ± 10 nM.
The corresponding values for `CNCCc1csc(-c2ccc(F)c(C34CC5CC(CC(C5)C3)C4)c2)n1` [Compound 1b, 2-{2-[3-(1-Tricyclo[3.3.1.1^3,7]decyl)-4-fluorophenyl]thiazol-4-yl}-N-methylethan-1-amine] are 2010 ± 320 nM, 2.2, 900 ± 10 nM and 1100 ± 10 nM.
With `Br.NCCc1nc(-c2ccc(C34CC5CC(CC(C5)C3)C4)cc2)cs1` [Compound 3c, 2-{4-[4-(1-Tricyclo[3.3.1.1^3,7]decyl)phenyl]thiazol-2-yl}ethanamine hydrobromide], the melting point was 261 to 263 °C. In data set [1], the IC50 was determined as 4160 ± 240 nM. Further, the “S.I. (selectivity index)” value in the data set on L6 cells came to 1.5. In data set [2], the IC50 was found to be 2740 ± 290 nM and the IC90 was determined as 4400 ± 70 nM.
Take `O=C(NCCc1csc(-c2ccc(F)c(C34CC5CC(CC(C5)C3)C4)c2)n1)N1CCCCC1` [Compound 1j, N-{2-[2-(3-(1-Tricyclo[3.3.1.1^3,7]decyl)-4-fluorophenyl)thiazol-4-yl}ethyl)piperidine-1-yl-carboxamide]: the IC50 in data set [1] is less than 10300 nM. Moreover, the “S.I. (selectivity index)” value in the data set on L6 cells is on record as less than 1. For the same compound, in data set [2], the IC50 is 10700 ± 300 nM and the IC90 is 12600 ± 200 nM.
In the case of `NCCc1csc(-c2ccc(C34CC5CC(CC(C5)C3)C4)cc2)n1` [Compound 2a, 2-{2-[4-(1-Tricyclo[3.3.1.1^3,7]decyl)phenyl]thiazol-4-yl}ethan-1-amine], the IC50 amounted to 4080 ± 150 nM in data set [1] and 800 ± 30 nM in data set [2]. In addition, the “S.I. (selectivity index)” value in the data set on L6 cells turned out to be 5.1. In addition, the IC90 in data set [2] is 1170 ± 10 nM.
The corresponding values for `CNCCc1csc(-c2ccc(C34CC5CC(CC(C5)C3)C4)cc2)n1` [Compound 2b, 2-{2-[4-(1-Tricyclo[3.3.1.1^3,7]decyl)phenyl]thiazol-4-yl}-N-methylethan-1-amine] are 960 ± 260 nM, 590 ± 20 nM, 1.6 and 790 ± 10 nM.

The values are drawn from paper PMC7522794, “Synthesis and evaluation of novel 2,4-disubstituted arylthiazoles against T. brucei” (RSC Medicinal Chemistry, 2019).
